Experimental data reported in paper PMC7893821, “A conserved PI(4,5)P2–binding domain is critical for immune regulatory function of DOCK8” (Life Science Alliance, 2021).
Positions count from the first letter of the chain named.

Columns and labels:
Assay in all cases: isothermal titration calorimetry
Format in all cases: binding
[1] = target: T1, DOCK8 DHR-1 domain (Mus musculus, UniProt Q8C147)
T1 construct: DHR-1 domain, residues 558-740, pGEX6P-1, E. coli ArcticExpress DE3; GST tag cut with PreScission for ITC, GST fusion kept in vesicle assays
T1 sequence (Q8C147 558-740): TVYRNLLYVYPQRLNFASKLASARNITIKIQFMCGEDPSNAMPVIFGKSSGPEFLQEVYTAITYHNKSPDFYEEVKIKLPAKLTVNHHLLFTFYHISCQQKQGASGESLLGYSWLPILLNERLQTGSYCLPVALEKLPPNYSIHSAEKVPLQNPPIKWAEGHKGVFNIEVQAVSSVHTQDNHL

[2] = target: T2, DOCK8 DHR-1 domain (Mus musculus, UniProt Q8C147, R581A)
T2 construct: DHR-1 domain, residues 558-740, pGEX6P-1, E. coli ArcticExpress DE3; GST tag cut with PreScission for ITC, GST fusion kept in vesicle assays
T2 sequence (Q8C147 558-740 R581A): T1 sequence (Q8C147 558-740) with R24A

[3] = target: T3, DOCK8 DHR-1 domain (Mus musculus, UniProt Q8C147, K576A)
T3 construct: DHR-1 domain, residues 558-740, pGEX6P-1, E. coli ArcticExpress DE3; GST tag cut with PreScission for ITC, GST fusion kept in vesicle assays
T3 sequence (Q8C147 558-740 K576A): T1 sequence (Q8C147 558-740) with K19A
Text: (§1) isothermal titration calorimetry on DOCK8 DHR-1 domain | Mutations R570A, K576A, and R581A led to two to threefold reduction in the binding affinity

[4] = target: T4, DOCK8 DHR-1 domain (Mus musculus, UniProt Q8C147, R570A)
T4 construct: DHR-1 domain, residues 558-740, pGEX6P-1, E. coli ArcticExpress DE3; GST tag cut with PreScission for ITC, GST fusion kept in vesicle assays
T4 sequence (Q8C147 558-740 R570A): T1 sequence (Q8C147 558-740) with R13A
Text: as §1

[5] = target: T5, DOCK8 DHR-1 domain (Mus musculus, UniProt Q8C147, K576A/R581A); details: 20 mM Tris-HCl pH 8.0, 16 mM NaCl, 25 °C; GST tag removed
T5 construct: DHR-1 domain, residues 558-740, pGEX6P-1, E. coli ArcticExpress DE3; GST tag cut with PreScission for ITC, GST fusion kept in vesicle assays
T5 sequence (Q8C147 558-740 K576A/R581A): T1 sequence (Q8C147 558-740) with K19A, R24A

Row | Kd [1] [µM] | Kd [2] [µM] | Kd [3] [µM] | Kd [4] [µM] | SMILES | no binding detected [5]
1 | 26.9 ± 3 | – | – | – | CCCCCCCC(=O)OC[C@H](COP(=O)(O)O[C@H]1[C@H](O)[C@@H](OP(=O)(O)O)[C@H](OP(=O)(O)O)[C@@H](OP(=O)(O)O)[C@H]1O)OC(=O)CCCCCCC [diC8-PI(3,4,5)P3] | –
2 | 19.5 ± 3.7 | 64.2 ± 7.7 | 37.1 ± 8 | 42.9 ± 3.1 | CCCCCCCC(=O)OC[C@H](COP(=O)(O)O[C@@H]1[C@H](O)[C@H](O)[C@@H](OP(=O)(O)O)[C@H](OP(=O)(O)O)[C@H]1O)OC(=O)CCCCCCC [diC8-PI(4,5)P2] | Consistently, no binding was observed for KARA mutant.
